As a reminder, the Ki is a measure of affinity in units of concentration, obtained from inhibition or displacement.

This passage reports Ki results from US6495560B1, “Vitronectin receptor antagonist” (SmithKline Beecham Corporation, priority 1998, dated 2002).

For this assay, the target named is T1, αvβ3 (vitronectin receptor) (Homo sapiens, UniProt P05106+P06756).
T1 construct: Human placenta or human platelet αvβ3 (0.1-0.3 mg/mL) in buffer T; from tissue; host or cells: human placenta or human platelets
Nature of the assay: Solid-Phase [3H]-SK&F-107260 Binding to αvβ3. To be noted: human placenta or human platelet αvβ3; competition with 5.0 nM [3H]-SK&F-107260; Ki=IC50/(1+L/Kd). On the procedure: 0.1-0.2 μg of αvβ3 was added per well. The plates were incubated overnight at 4° C. At the time of the experiment, the wells were washed once with buffer A and were incubated with 0.1 mL of 3.5% bovine serum albumin in the same buffer for 1 hr at room temperature. Following incubation the wells were aspirated completely and washed twice with 0.2 mL buffer A.
Compound were dissolved in 100% DMSO to give a 2 mM stock solution, which was diluted with binding buffer (15 mM Tris-HCl (pH 7.4), 100 mM NaCl, 1 mM CaCl2, 1 mM MnCl2, 1 mM MgCl2) to a final compound concentration of 100 μM. This solution is then diluted to the required final compound concentration.
The plates were incubated for 1 hr at room temperature. Following incubation the wells were aspirated completely and washed once with 0.2 mL of ice cold buffer A in a well-to-well fashion.

T1 sequence (P06756 31-889 limits assumed): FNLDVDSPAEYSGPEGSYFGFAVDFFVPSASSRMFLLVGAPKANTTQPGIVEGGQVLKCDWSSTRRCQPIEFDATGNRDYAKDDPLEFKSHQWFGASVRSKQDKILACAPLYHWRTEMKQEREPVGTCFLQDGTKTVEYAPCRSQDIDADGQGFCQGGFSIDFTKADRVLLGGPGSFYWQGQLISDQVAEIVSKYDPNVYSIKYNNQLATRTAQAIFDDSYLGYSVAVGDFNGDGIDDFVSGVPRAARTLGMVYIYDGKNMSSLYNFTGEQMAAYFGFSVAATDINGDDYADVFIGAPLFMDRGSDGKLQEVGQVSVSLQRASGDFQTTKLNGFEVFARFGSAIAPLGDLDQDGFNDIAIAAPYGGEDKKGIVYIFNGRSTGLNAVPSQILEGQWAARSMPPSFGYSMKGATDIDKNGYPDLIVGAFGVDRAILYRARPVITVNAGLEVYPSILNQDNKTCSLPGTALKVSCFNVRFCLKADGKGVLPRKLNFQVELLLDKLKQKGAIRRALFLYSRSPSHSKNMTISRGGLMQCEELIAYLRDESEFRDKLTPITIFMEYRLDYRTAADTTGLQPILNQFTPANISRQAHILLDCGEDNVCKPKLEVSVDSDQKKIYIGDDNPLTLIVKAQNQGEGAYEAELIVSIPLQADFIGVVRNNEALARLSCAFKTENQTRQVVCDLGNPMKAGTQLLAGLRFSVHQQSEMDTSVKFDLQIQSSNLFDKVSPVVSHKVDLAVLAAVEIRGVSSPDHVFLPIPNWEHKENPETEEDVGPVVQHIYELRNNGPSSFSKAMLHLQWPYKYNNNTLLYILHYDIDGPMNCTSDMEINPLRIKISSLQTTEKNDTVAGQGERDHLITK
T1 sequence (P06756 891-1048 partner limits assumed): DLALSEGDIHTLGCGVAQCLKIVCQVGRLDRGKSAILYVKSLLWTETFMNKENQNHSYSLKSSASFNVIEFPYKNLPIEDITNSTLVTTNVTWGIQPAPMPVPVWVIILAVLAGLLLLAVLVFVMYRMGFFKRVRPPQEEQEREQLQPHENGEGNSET
T1 sequence (P05106 27-788): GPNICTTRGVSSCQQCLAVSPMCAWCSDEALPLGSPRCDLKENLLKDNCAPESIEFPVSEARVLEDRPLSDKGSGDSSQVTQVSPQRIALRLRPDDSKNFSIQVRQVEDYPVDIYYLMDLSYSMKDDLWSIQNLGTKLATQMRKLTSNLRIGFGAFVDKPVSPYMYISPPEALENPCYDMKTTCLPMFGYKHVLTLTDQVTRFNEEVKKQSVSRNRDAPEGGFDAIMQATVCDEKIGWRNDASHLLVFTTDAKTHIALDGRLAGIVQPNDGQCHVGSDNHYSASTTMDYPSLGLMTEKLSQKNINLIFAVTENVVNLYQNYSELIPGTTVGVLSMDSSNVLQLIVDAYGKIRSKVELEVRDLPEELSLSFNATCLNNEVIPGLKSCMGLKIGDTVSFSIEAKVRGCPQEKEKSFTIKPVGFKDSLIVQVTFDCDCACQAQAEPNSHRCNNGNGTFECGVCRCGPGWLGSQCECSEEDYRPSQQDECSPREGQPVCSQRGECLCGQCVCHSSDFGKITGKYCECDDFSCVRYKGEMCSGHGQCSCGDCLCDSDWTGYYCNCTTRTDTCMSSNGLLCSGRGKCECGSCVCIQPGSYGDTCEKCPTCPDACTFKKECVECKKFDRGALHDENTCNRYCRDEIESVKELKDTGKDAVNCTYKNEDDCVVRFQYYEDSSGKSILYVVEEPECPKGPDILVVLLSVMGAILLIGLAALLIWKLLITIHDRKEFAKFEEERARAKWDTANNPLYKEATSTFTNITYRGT

In the case of `O=C(O)C[C@@H]1Cc2ccc(OCCc3ccc4c(n3)NCCC4)cc2Cc2ccccc21` [Example 1, (S)-10,11-dihydro-3-[2-(5,6,7,8-tetrahydro-1,8-naphthyridin-2-yl)-1-ethoxy]-5H-dibenzo[a,d]cycloheptene-10-acetic acid], the Ki is roughly 1.7 nM.
